# Measured values from PubChem BioAssay (NCI).
#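 Protocol summary: plate cells (96-well), add compound at 5 concentrations, incubate 48 h, interpolate endpoints linearly. GI50 = concentration required for 50% inhibition of growth. TGI is the concentration that stops growth completely.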
# Key:
# Test in all cases: DTP human tumour cell line panel, 48 h
# HCC-2998 colon = tested on: HCC-2998 colon
# NCI-H23 lung = tested on: NCI-H23 lung
# SK-MEL-28 melanoma = tested on: SK-MEL-28 melanoma
# OVCAR-5 ovarian = tested on: OVCAR-5 ovarian
# RPMI-8226 leukemia = tested on: RPMI-8226 leukemia
# EKVX NSCLC = tested on: EKVX NSCLC
# SK-OV-3 ovarian = tested on: SK-OV-3 ovarian
# CAKI-1 renal = tested on: CAKI-1 renal
# NCI-H460 lung = tested on: NCI-H460 lung
# HCT-116 colon = tested on: HCT-116 colon
Structure (SMILES),GI50 (HCC-2998 colon) [µM],TGI (HCC-2998 colon) [µM],GI50 (NCI-H23 lung) [µM],TGI (NCI-H23 lung) [µM],GI50 (SK-MEL-28 melanoma) [µM],TGI (SK-MEL-28 melanoma) [µM],GI50 (OVCAR-5 ovarian) [µM],TGI (OVCAR-5 ovarian) [µM],GI50 (RPMI-8226 leukemia) [µM],TGI (RPMI-8226 leukemia) [µM],GI50 (EKVX NSCLC) [µM],TGI (EKVX NSCLC) [µM],GI50 (SK-OV-3 ovarian) [µM],TGI (SK-OV-3 ovarian) [µM],GI50 (CAKI-1 renal) [µM],TGI (CAKI-1 renal) [µM],GI50 (NCI-H460 lung) [µM],TGI (NCI-H460 lung) [µM],GI50 (HCT-116 colon) [µM],TGI (HCT-116 colon) [µM]
Nc1n[nH]c2cc(F)c([C@@H]3Nc4c(F)cc5[nH]ncc5c4[C@H]4C5CCC(C5)[C@@H]34)cc12 (stereo partly specified),0.118,4.5,0.158,5.76,3.75,13.4,0.175,8.52,0.145,5.22,0.167,23.4,0.275,20.7,0.137,3.38,0.117,3.57,0.118,1.56
CCCCCCCCCCCc1cc(=O)c2c(O)cccc2o1,–,> 100,–,> 100,–,> 100,–,> 100,–,> 100,–,> 100,–,> 100,–,> 100,–,> 100,–,> 100
COC(=O)C[C@@H]1CC=CC(=O)/C1=C(O)/C=C/c1ccccc1,1.72,3.25,0.7,2.13,1.19,2.61,1.84,4.57,0.303,1.34,1.85,3.91,1.7,3.88,0.408,1.41,2.08,8.2,0.169,0.329
Cc1cc(O)cc(-c2nn(C)cc2-c2cc(N3CCOCC3)nc(-c3cccnc3)n2)c1,13.9,49.5,5.31,60.3,3.8,21.1,12.2,> 100,2.84,10.9,10.5,> 100,6.83,43.7,3.32,> 100,3.28,> 100,3.06,> 100
COc1ccc2cn3c4ccc(O)cc4[nH]c(=O)c3c2c1,0.301,6.75,0.402,15.7,0.0742,17.3,2.72,21.5,0.308,7.93,0.778,20.7,0.0889,13.9,0.179,17,0.114,10.8,0.046,1.95
CC(C)=CC1(C)/C(=N\O)C(C)(CC(C)C)C(=O)N1O (stereo unspecified),–,> 100,–,> 100,–,> 100,–,> 100,–,> 100,–,> 100,–,> 100,–,> 100,–,> 100,–,> 100
Cc1nc2sc(C(=O)Nc3cccc(Cl)c3C)c(N)c2cc1C(O)c1ccccc1 (stereo unspecified),0.106,2.36,0.0634,12.9,1.6,23.1,0.14,46.5,0.0388,3.05,0.268,21.4,0.0697,33.4,0.0487,8.46,0.0347,0.486,0.0404,10.9
CCCCc1n(Cc2ccc3ccccc3n2)cc[n+]1Cc1ccc2ccccc2c1,0.641,2.01,0.508,3.98,0.798,2.59,1.54,8.48,0.265,1.36,1.4,11.8,1.47,4.33,1.62,3.64,0.917,2.95,0.639,2.11
COc1ccccc1C(=O)Nc1ccc(Cl)c(C(=O)OC(C)C)c1,–,> 100,–,28.1,–,> 94.5,–,> 83.4,–,77.6,–,> 100,–,> 100,–,> 100,–,> 100,–,> 95
COC(=O)[C@]12CC[C@@H](C)[C@H](C)[C@@H]1C1=CC[C@@H]3[C@@]4(C)C(C=O)=C[C@@](C)(COC(=O)c5ccco5)C4=CC[C@@]3(C)[C@]1(C)CC2,2.76,7.17,3.25,25.7,0.053,3.01,2.32,6.99,1.49,5.01,2.74,9.17,8.41,75.1,3.32,25.2,2.66,7.61,2.2,6.47
C=CC(=O)N1CCC(CNc2ncnc(N)c2-c2ccc(Oc3ccccc3)cc2)CC1,21,46.7,29.8,> 100,34.4,> 100,46.7,> 100,15.1,42.6,24.1,> 100,18,70,22.5,> 100,34.8,> 100,30.1,> 100
Fc1cccc(-c2nc(-c3c[nH]c4ncccc34)cs2)c1,> 100,> 100,71.1,> 100,> 100,> 100,> 100,> 100,> 100,> 100,2.46,> 100,11.9,94.3,> 100,> 100,6.59,> 100,7.9,> 100
Cn1c(=S)c2[nH]c(SCc3cccnc3)nc2n(C)c1=O,–,> 100,–,> 100,–,> 100,–,> 100,–,> 100,–,> 100,–,> 100,–,> 100,–,> 100,–,> 100
CN1CCN(c2ccc(NC(=O)c3cncnc3Nc3ccc4c(ccn4Cc4cccc(F)c4)c3)cc2)CC1,3.03,7.4,4.35,9.14,0.533,1.01,3.42,7.32,0.754,1.79,4.78,9.37,5.09,9.78,3.6,7.75,1.35,4.99,1,3.55
COc1ccccc1N1CCN(CC(O)Cn2c(=O)c3c(OC)nc(C)cc3c(=O)n2-c2ccccc2)CC1 (stereo unspecified),> 100,> 100,59.1,> 100,> 100,> 100,> 100,> 100,39.6,> 100,66.1,> 100,23.5,> 100,32.7,> 100,> 100,> 100,67.3,> 100
NC1=C(/C(N)=N/O)C(c2ccccc2)c2ccc3ccccc3c2O1 (stereo unspecified),0.729,15.8,0.479,> 100,11.3,51,1.19,> 100,0.38,28.9,1.01,> 100,0.616,> 100,0.192,42.3,0.341,16.1,0.444,30.7
CCOC(=O)C1=C(Nc2cccc3ccccc23)OCC1=O,–,> 100,–,> 100,–,> 100,–,> 100,–,> 100,–,> 100,–,> 100,–,> 100,–,> 100,–,> 100
C#CCOCn1cnc2c(N)ncnc21,–,> 100,–,> 100,–,> 100,–,> 100,–,> 100,–,> 100,–,> 100,–,> 100,–,> 100,–,> 100
CCN1Cc2c(/C=C/c3ccccc3)nc3ccc(OC)cc3c2N(c2cccc(Cl)c2)C1,1.64,3.14,1.67,4.2,1.78,3.28,1.49,2.97,1.65,4.71,1.79,3.9,1.88,4.4,1.51,3.57,1.64,3.27,1.67,3.8
Cc1c(-c2cc(-c3ccccc3)n[nH]c2=O)c2ccccc2n1C,–,> 100,–,> 100,–,> 100,–,> 100,–,> 100,–,> 100,–,> 100,–,> 100,–,> 100,–,> 100
O=C(O)c1ccccc1C(=O)Nc1cc2c(cc1Br)-c1ccccc1C2=O,–,58,–,> 100,–,> 100,–,> 100,–,> 100,–,> 100,–,> 100,–,> 100,–,> 100,–,> 100
COc1cc2c3c(n(CCCN=[N+]=[N-])c(=O)c2cc1OC)-c1ccc(NC(C)=O)cc1C3=O,> 50,> 50,> 50,> 50,> 50,> 50,> 50,> 50,> 50,> 50,> 50,> 50,> 50,> 50,8.39,> 50,8.97,> 50,> 50,> 50
Nc1nc(N)c2cc(S(=O)(=O)c3ccccc3)ccc2n1,2.38,32.2,3.03,> 100,10.6,> 100,2.21,> 100,6.04,> 100,7.13,> 100,5.41,> 100,3.45,> 100,0.417,> 100,0.501,> 100
COC(=O)C(Br)(C(=O)OC)C(Br)C(Br)C(Br)c1ccccc1 (stereo unspecified),17.5,32,5.78,13.9,2.12,4.99,3.3,13,2.97,9.34,13.9,31.9,16.8,31.9,1.76,3.73,17.2,32.3,1.61,3.01
O=C(CC(=O)c1cccc2ccccc12)C(=O)Nc1nccs1,–,> 100,–,> 100,–,> 100,–,> 100,–,> 100,–,> 100,–,> 100,–,> 100,–,> 100,–,> 100
CN1CCC(n2cnc(-c3ccc(F)cc3)c2-c2ccnc(Nc3ccccc3)n2)CC1,6.76,> 25,16.3,> 25,5.19,11,15,> 25,> 20.8,> 25,3.75,> 25,3.81,> 25,1.79,> 15.3,5.39,> 25,7.27,> 25
N#CC1=C(N)Oc2c(ccc3cccnc23)C1c1ccccc1 (stereo unspecified),–,> 100,–,> 28.5,–,> 75.5,–,> 100,2.37,15.1,–,> 100,–,> 100,–,> 100,–,> 46.3,–,21.3
N#Cc1cc2c(=S)[nH]c(=S)[nH]c2nc1SCc1ccccc1,24.6,79,32,> 100,69.7,> 100,76.2,> 100,26.4,> 100,63.3,> 100,> 100,> 100,10.1,76.8,38.8,> 100,29.8,> 100
COc1ccccc1NC(=O)C1=C(C)NC(C)=C(C(=O)Nc2ccccc2OC)C1c1ccc(C2C(C(=O)Nc3ccccc3OC)=C(C)NC(C)=C2C(=O)Nc2ccccc2OC)cc1,–,3.56,–,7.52,–,6.45,–,10.7,–,8,–,6.91,–,26,–,11.3,–,12.6,–,2.7
